Experiment [1] has as its system Pyricularia oryzae (Magnaporthe grisea). Nature of the experiment: microbe, parasite or virus in culture. The experiment is classed as cell-based. The conditions noted are these: read-out: Magnaporthe grisea inhibition.
Experiment [2] deals with Botrytis cinerea AARF-033. Nature of the experiment: Antifungal activity test against rice Botrytis cinerea (96 well microplate, conidia in glucose broth). The experiment is classed as cell-based. The conditions noted are these: AARF033, 96 h, conidia 1×10^4 conidia/ml, stationary culturing for 4 days at 25° C. The source says: Test specimens (compound (4a-2) and compound (4b-2)), (compound (4a-3) and compound (4b-3)), and reference compounds i.e. iprodione and Captan, were each independently dissolved in dimethyl sulfoxide (DMSO) and adjusted to a concentration of 10,000 ppm. The test solution was dispensed 2 μ/ml in a flat-bottomed 96 well microplate, and then, conidia of rice Botrytis cinerea (Botrytis cinerea AARF-033) cultured on glucose agar medium, suspended in glucose broth and adjusted to 1×10^4 conidia/ml, were dispensed 198 μ/mL, followed by stirring by a micromixer. At that time, the concentrations of the test specimen and the reference compound, were 100 ppm. Thereafter, the antimicrobial activities were evaluated by stationary culturing for 4 days at 25° C.

Inhibition data for four molecules are collected here from patent US20160295864A1 (priority 2014, published 2016).

Take `CCCCNC(=O)n1c(NC(=O)OC)nc2ccccc21` [Benomyl, benomyl]: in experiment [1], the inhibition at 100 ppm was at least 95%.

In experiment [2], `O=C1C2CC=CCC2C(=O)N1SC(Cl)(Cl)Cl` (stereo not shown) [Captan] displayed an inhibition at 100 ppm of at least 95%.

Regarding `CO/N=C(/C1=NOCCO1)c1ccccc1Oc1ncnc(Oc2ccccc2Cl)c1F` [Fluoxastrobin, fluoxastrobin], the inhibition at 100 ppm in experiment [1] was at least 95%.

`CC(C)NC(=O)N1CC(=O)N(c2cc(Cl)cc(Cl)c2)C1=O` [Iprodione, iprodione] displayed an inhibition at 100 ppm in experiment [2] of at least 95%.
